Several values for one entry are separate records, joined by “and”; a condition that tells them apart may be missing. Equal values may be shown once.
Columns and labels:
[1] = system: IRS2−/− female mice; experiment: Implantation and pregnancy study after cross-breeding with IRS2wt male mice; format: in vivo
Experimental: (§1) Ten IRS2^−/− female mice of ages comprised between 6 and 8 weeks. Six “wild-type” (IRS2^wt) male mice of ages comprised between 6 and 8 weeks. The female and male mice were housed separately in normal conditions, i.e., a 12 h light/darkness cycle and controlled temperature and humidity. The animals were fed at will (also referred to as ad libitum) with a standard feed diet.
(§2) After an acclimatization period, the IRS2^−/− female mice were housed in groups of 4-6 mice/cage. Tungstate salt-free drinking water was administered to the animals during the pre-treatment phase (2 weeks).
(§3) Sodium tungstate was administered in the drinking water (ad libitum) by means of a solution of 2 mg/ml of sodium tungstate dihydrate (marketed by Carlo Erba) in distilled water after the pre-treatment phase (day 0 of treatment) and up to 4 weeks before sacrificing the animals. The daily dose of sodium tungstate ingested by the mice was about 180 mg/kg of body weight.
After the first three weeks of treatment, the IRS2^−/− female mice were housed in cages in pairs together with a IRS2^wt male mouse continuously.
The mice were observed daily to look for signs of pregnancy or birth.
After 4 weeks, the male mice were exchanged between the cages and they were kept therein for another 4 weeks.
The administration of tungstate was maintained for 8 weeks in which male and female mice were housed together. After these 8 weeks, treatment was withdrawn and the male and female mice were housed together for 4 additional weeks.
After this period, the female mice were sacrificed and biopsy was carried out to look for indications of pregnancy.
After the cross-breeding period of the method of section B, the female mice were sacrificed and biopsies were carried out to look for indications of pregnancy.

[2] = system: IRS2−/− female mice; experiment: Ovulation study: phase of the estrous cycle in vaginal smears (Papanicolau); format: in vivo; parameters: key to Phase of the estrous cycle in vaginal smear: A: Anestrus; D: Diestrus; P: Proestrus; E: Estrus; M: Metestrus; conditions: for Phase of the estrous cycle in vaginal smear: individual IRS2−/− female mice, dihydrate
Description: The mouse model used for determining the activity of tungsten (VI) salts for favoring normal reproduction and fertility is an Irs2 gene knock-out mouse, IRS2^−/−[Burks et. al., “IRS-2 pathways integrate female reproduction and energy homeostasis”, Nature, 2000, vol. 407, pp. 377-382]. Irs2 gene deletion translates into a clear sexual dimorphism in relation to fertility and carbohydrate metabolism.
The male mice of this model have insulin resistance and severe hyperglycemia that started at an early age. In contrast, the female mice remain relatively euglycemic at an early age and develop slight insulin resistance which remains until a later age (4-5 months). IRS2^−/− female mice at an early age, about 10 weeks old, show a low follicular development and persistent anovulation, accompanied by the absence of estrous cycle in most mice. The pregnancy rate in IRS2^−/− female mice is 9% compared to the rate of 100% in IRS^wt (IRS-2^−/− wild type) female mice. Given that female mice at these ages remain euglycemic and that they only develop slight insulin resistance, the profound impairment in fertility is not a direct result of anomalies in glucose metabolism.
as §1, §2, §3
During the pre-treatment period and during the first 3 weeks of treatment, vaginal smears were performed in 6 randomly chosen female mice on days −8; −5; −2; −1; 7; 8; 14; 15 and 22, to determine the phase of the estrous cycle they were in.
Between […] of saline solution was introduced into the vagina of the mice with a Pasteur pipette. Vaginal exudate was collected with the same pipette and spread on a slide. Once air-dried, it was fixed and stained with the Papanicolau technique.
The Papanicolau technique comprises staining the vaginal smears fixed on the slide in the following manner: • 10 immersions in 50% v/v alcohol; • Immersing in Harris hematoxylin solution for 3 minutes; • Rinsing with running water; • 10 immersions in acid alcohol (1% hydrochloric acid); • Rinsing with running water; • 10 immersions in 95% v/v alcohol; • Immersing in OG-6 solution for 30 seconds; • 10 immersions in 96% v/v alcohol; • Immersing in eosin solution for 1 minute; • 10 immersions in 96% v/v alcohol; • 10 immersions in 86% v/v alcohol; and • 10 immersions in xylol
The preparations were analyzed by trained staff using a coding in a single-blind manner for eliminating observer bias.
The samples were identified in the following phases: diestrus, proestrus, estrus, metestrus, anestrus or non-evaluable. The cyclical nature of the four phases in periods of 4 to 6 days are indicative of a normal estrous cycle, whereas the absence of this cyclical nature and the persistence in anestrus, diestrus or proestrus phases are indicative of the absence of estrous cycle.

[3] = system: rats with diabetes and insulinopenia induced by streptozotocin; conditions: streptozotocin-diabetic females after prolonged treatment (10 weeks), mated with healthy males; non-diabetic 100%; cited from earlier work
[4] = system: HEC1-A endometrial cell line and JEG-3 trophectoderm cell line; experiment: In vitro endometrial embryonic adhesion study (JEG-3 spheroids on HEC-1A monolayer); format: cell-based, human; conditions: for Absolute adhesion rate / Absolute adhesion rate, Mean: HEC-1A treated 24 hours (sodium tungstate 10 μM); for Absolute adhesion rate: adhesion after 60 minutes; for Embryonic adhesion versus untreated HEC-1A cells (in words): HEC-1A treated 24 hours; for Absolute adhesion rate, Mean: Mean of Exp 1-3, baseline 30%
Description: An “in vitro” human-human embryonic adhesion model made up the HEC1-A endometrial cell line and the JEG-3 trophectoderm cell line was used to determine the effect of sodium tungstate on endometrial receptivity.
The use of in vitro models, and specifically the model based on the mentioned cell lines (HEC-1A and JEG-3), is considered a standard model for studying endometrial receptivity and particularly the adhesion the trophoblast to the endometrium (Fertility and Sterility 2011; 96, 522-529; Methods in Enzymology 2006; 420:3-18 or FASEB J. 201; 26:3715-3727).
The JEG-3 cell line which simulates the trophectoderm cells of a human embryo are cells that grow in monolayers in laboratory using low adherence plates and are capable of forming spheroids simulating the human embryo; this is one of the most widely used cell lines for conducting in vitro embryonic adhesion assay.
The cell lines were commercially purchased (American Type Culture Collection (ATCC); Rockville, Md., USA) for conducting the endometrial embryonic adhesion experiments. They were thawed and expanded in 4 passes for obtaining sufficient cells to perform all the assays.
The HEC1-A cells were plated in 24-well plates and cultured with McCoy 5A culture medium supplemented with 10% fetal bovine serum and 0.1% antibiotics (fungizone and penicillin), until reaching 90% confluence. After reaching the confluence, there was added to the culture medium sodium tungstate at a final concentration of 10 μM, as well as Withaferin A (as a control, a compound that prevents embryonic adhesion) or culture medium (baseline adhesion data), without any additional component, for 24 hours.
The JEG-3 cells were plated in low adherent plates with Eagle's minimal essential medium (EMEM) culture medium supplemented with 10% fetal bovine serum and 0.1% antibiotics (fungizone and penicillin). Twenty-four hours before the adhesion assay, the JEG-3 trophoblast spheroids were formed from this culture. To that end, JEG-3 cells in the medium described above were suspended in an Erlenmeyer flask under stirring at a concentration of 6×10^5 cells/6 ml. The resulting spheroids were collected for the adhesion assay.
For the adhesion assay, 24 hours after culturing the HEC-1A cells with culture medium adding sodium tungstate, Withaferin A or without adding any treatment, the culture medium was changed with fresh culture medium without treatments under study. The trophectoderm spheroids were added onto the monolayer of HEC-1A cells, placing 6 to 10 spheroids per well. The adhesion of the spheroids was measured after 60 minutes, counting spheroid that was floating in the culture medium as non-adhered spheroid and spheroid that was not floating as adhered spheroid. The examination was conducted with an inverted microscope (Nikon Diaphot 300; Nikon Corp., Tokyo, Japan). The assay was conducted in triplicate.

[5] = individual treated IRS2−/− female mice, dihydrate

SMILES | Pregnancy rate ([1]; IRS2−/− female mice treated with tungstate (untreated 9%)) | Pregnancy ([1]; individual treated IRS2−/− female mice, 2 mg/ml in drinking water, cross-bred with IRS2wt males, dihydrate) | Number of embryos implanted or young born (embryos implanted) [1, 5] | Number of embryos implanted or young born (young born) [1, 5] | Mean of young/implanted embryos per pregnant female mouse ([1]; treated IRS2−/− female mice) | Phase of the estrous cycle in vaginal smear ([2]; day 7 of treatment, 2 mg/ml sodium tungstate dihydrate in drinking water (about 180 mg/kg/day)) | Phase of the estrous cycle in vaginal smear ([2]; day 8 of treatment, 2 mg/ml in drinking water) | Phase of the estrous cycle in vaginal smear ([2]; day 14 of treatment, 2 mg/ml in drinking water) | Phase of the estrous cycle in vaginal smear ([2]; day 15 of treatment, 2 mg/ml in drinking water) | Phase of the estrous cycle in vaginal smear ([2]; day 22 of treatment, 2 mg/ml in drinking water) | Analyzed mice with recovery of the estrous cycle ([2]; on the seventh day of treatment, infertile, non-diabetic IRS2−/− female mice) | Percentage of births with respect to the number of positive curettages [3] | Absolute adhesion rate ([4]; Exp 1, baseline 12%) | Absolute adhesion rate ([4]; Exp 2, baseline 48%) | Absolute adhesion rate ([4]; Exp 3, baseline 31%) | Embryonic adhesion versus untreated HEC-1A cells (in words) [4] | Absolute adhesion rate, Mean [4]
O.O.[Na+].[Na+].[O]=[W](=[O])([O-])[O-] [sodium tungstate, sodium tungstate dihydrate] | 80% | YES | 7 embryos (3×) and 6 embryos | 3 young and 8 young (2×) and 1 young | about 5 | M and E (4×) and E-M | M and E-M (3×) and E (2×) | E and E-M (3×) and D | D and E (2×) and M (2×) and A | D (2×) and A (2×) and M and P | 100% | 66% | 31% | 65% | 35% | higher percentage of embryonic adhesion | 44%
CC1=C(CO)C(=O)O[C@@H]([C@@H](C)[C@H]2CC[C@H]3[C@@H]4C[C@H]5O[C@]56[C@@H](O)C=CC(=O)[C@]6(C)[C@H]4CC[C@]23C)C1 [Withaferin A, reference compound] |  |  |  |  |  |  |  |  |  |  |  |  | 0% | 0% | 0% | No adhesion whatsoever | 0%

Reference: US10376540B2, “Tungsten (VI) salts used to treat infertility, for stimulating fertility and normal reproduction in a non-diabetic female mammal, and for improving the effectiveness of assisted reproduction techniques” (OXOLIFE, S.L., priority 2014, dated 2019)
